According to patent US20250120989A1, “BRIDGED TRICYCLIC CARBAMOYLPYRIDONE COMPOUNDS AND USES THEREOF” (priority 2023, published 2025):
Values after ≈ are worked out from the molar mass of the structure shown.

Legend:
physchem = details: FaSSIF, 23 °C, thermodynamic from solid
HIV-1 (IIIB) = assay: microbe, parasite or virus in culture; type: cell-based; details: Human immunodeficiency virus 1, MT4, 120 h; HIV-1 (IIIB) replication in MT-4 cells, 5 days, Cell Titer Glo; read-out: MT4 EC50
in vitro = details: human, uninfected MT-4 cells
[1] = Dog PO pharmacokinetic studies with P-gp inhibitor encequidar mesylate (Example E); type: in vivo, beagle dog; details: for AUCinf, CMAX and oral bioavailability when administered with encequidar mesylate versus without / AUC(0-inf) / Cmax / bioavailability: dosed compound measured; for AUCinf, CMAX and oral bioavailability when administered with encequidar mesylate versus without: Table 5 versus Table 4, FIG. 1 and 2; for AUC(0-inf) / Cmax / bioavailability: male, beagle, plasma, dog PO 4 mg/kg, encequidar mesylate 5 mg-eq/kg PO about 30 min before
Method: Three male beagle dogs were fasted overnight. […] Individual doses were calculated based on body weights recorded on the day of dose administration. […] This was followed by an additional 20 mL of water administered via oral gavage. The total flush volume was approximately 30 mL. Individual doses were administered on a […]. In all cases, food was returned at approximately 4 hours after dosing. […] Bioanalysis was carried out according to Example C.

| AUCinf, CMAX and oral bioavailability when administered with encequidar mesylate versus without ([1]; dog PO) | AUC(0-inf) [1] | Cmax [1] | bioavailability [1] | Structure (SMILES) | solubility thermodynamic at 24 h (physchem) | EC50 (HIV-1 (IIIB)) | CC50 at 5 days (in vitro) | AUCinf, CMAX and oral bioavailability of Intermediate C when prodrug is administered with encequidar mesylate versus without ([1]; dog PO, Intermediate C measured, Table 5 Entry 3 versus Table 4 Entry 3, FIG. 3) |
| --- | --- | --- | --- | --- | --- | --- | --- | --- |
|  |  |  |  | COC1=NO[C@@]2(CC[C@H](C)N3C[C@H]2n2cc(C(=O)NCc4ccc(F)cc4F)c(=O)c(OCOC(=O)OCCOP(=O)(O)O)c2C3=O)C1 [Compound 3, (((3′S,5S,7′R)-10′-((2,4-difluorobenzyl)carbamoyl)-3-methoxy-3′-methyl-1′,11′-dioxo-1′,4′,5′,11′-tetrahydro-3′H,4H,7′H-spiro[isoxazole-5,6′-[2,7]methanopyrido[1,2-a][1,4]diazonin]-12′-yl)oxy)methyl (2-(phosphonooxy)ethyl) carbonate] | 6650 µg/mL (≈ 9.49 mM) | 0.00046 µM | 13 µM | increased |
| increased | 3980 ± 762 µM·h | 80.8 ± 4.9 µM | 70.3 ± 1.8% | CC1=NO[C@@]2(CC[C@H](C)N3C[C@H]2n2cc(C(=O)NCc4ccc(F)cc4F)c(=O)c(O)c2C3=O)C1 [Intermediate B, (3′S,5S,7′R)—N-(2,4-difluorobenzyl)-12′-hydroxy-3,3′-dimethyl-1′,11′-dioxo-1′,4′,5′,11′-tetrahydro-3′H,4H,7′H-spiro[isoxazole-5,6′-[2,7]methanopyrido[1,2-a][1,4]diazonine]-10′-carboxamide] | 2 µg/mL (≈ 0.00411 mM) |  |  |  |
| increased | 2300 ± 171 µM·h | 62 ± 3.5 µM | 82.3 ± 13.4% | COC1=NO[C@@]2(CC[C@H](C)N3C[C@H]2n2cc(C(=O)NCc4ccc(F)cc4F)c(=O)c(O)c2C3=O)C1 [Intermediate C, (3′S,5S,7′R)—N-(2,4-difluorobenzyl)-12′-hydroxy-3-methoxy-3′-methyl-1′,11′-dioxo-1′,4′,5′,11′-tetrahydro-3′H,4H,7′H-spiro[isoxazole-5,6′-[2,7]methanopyrido[1,2-a][1,4]diazonine]-10′-carboxamide] |  |  |  |  |
